Legend:
[1] = system: taxane-resistant metastatic breast cancer; settings: 1-h i.v. infusion every 3 weeks; Ann. Oncol. 2008, 19(9), 1547-1552; cited from earlier work
[2] = system: Thymidine Phosphorylase (TP) expression in MCF-7 breast carcinoma cells; settings: especially with MCF-7 breast carcinoma cells; abstract, French Pharmacology Society Conference 2008; cited from earlier work
[3] = system: patients with metastatic breast cancer; test: Phase I/II study: tolerance and treatment characteristics
Protocol: Part 2: the antitumor activity and the characterization of the tolerance profile were determined at the recommended dose.
The capecitabine is administered orally twice a day, in the morning and evening, from day D1 to day D14 (from the 1st to the 14th day of the cycle).
The doses could be reduced and the treatment cycle duration could be extended in the case of a severe adverse event (AE). The treatment was continued until disease progression, the presence of an unacceptable AE or the withdrawal of patient consent.
A physical examination, complete differential leukocyte and blood counts, and blood chemistry analyses were carried out before the recruitment of the patients and regularly during treatment. Tumor evaluation by radiology was carried out at recruitment of the patients and every 6 weeks. The responses were confirmed by 2 evaluations at least 4 weeks apart. Supplementary data were collected every 6 weeks until the date the study was stopped.

[4] = Phase I/II study: pharmacokinetics and drug interaction study; settings: patients, part 1; parent and metabolite
[5] = system: patients with metastatic breast cancer previously treated with anthracyclines and taxanes; settings: cabazitaxel (D1) in combination with capecitabine (twice a day, D1-14)
Description: The main inclusion criteria were an age of 18 or older, a histologically proven metastatic or locally recurrent breast cancer that was inoperable, an Eastern Cooperative Oncology Group performance status (ECOG PS) of 0 to 2, prior exposure to taxanes and to anthracyclines, and adequate hematological, renal and hepatic function.
The main exclusion criteria were a simultaneous cancer, more than one chemotherapy treatment for metastatic cancer, prior exposure to capecitabine, or uncontrolled significant comorbid conditions.
Thirty-three patients with metastatic breast cancer were included in the study, all previously treated with anthracyclines and taxanes: 15 patients for part 1 and 18 for part 2.
The dose-limiting toxicities (DLTs), i.e. the list of events to be monitored, which make it possible to guide the dose escalation, were first of all predefined in the protocol in accordance with the NCI-CTCAE classification scale, version 3.
The increase in doses was studied in groups of three patients as long as no DLT was observed.

[6] = DL2: 20 mg/m^2 cabazitaxel + 2 × 1000 mg/m^2/day capecitabine for 14 days, 21 patients
[7] = Total, all dose levels, 33 patients

Compound	efficacy in taxane-resistant metastatic breast cancer [1]	induction of TP expression [2]	Number of patients with dose reduction [3, 6]	Number of patients with dose reduction [3, 7]	pharmacokinetics affected by coadministration of the other agent [4]	maximal administered dose (MAD) [5]	recommended dose (RD) ([5]; highest dose at which less than 33% of patients exhibited a DLT)
4α-acetoxy-2α-benzoyloxy-5β,20-epoxy-1β-hydroxy-β,10β-dimethoxy-9-oxotax-11-en-13α-yl (2R,3S)-3-tert-butoxycarbonylamino-2-hydroxy-3-phenylpropionate [cabazitaxel]	can be effective	induces TP expression	4	10	do not appear to be affected	–	–
CCCCCOC(=O)Nc1nc(=O)n([C@@H]2O[C@H](C)[C@@H](O)[C@H]2O)cc1F [capecitabine, 5′-deoxy-5-fluoro-N4-(pentyloxycarbonyl)cytidine N-[1-(5-deoxy-beta-D-ribofuranosyl)-5-fluoro-2-oxo-1,2-dihydropyrimidin-4-yl]carbamic acid pentyl ester]	–	–	3	7	vice versa	1000 mg/m^2	1000 mg/m^2
